From ChEMBL document CHEMBL3885881, “DrugMatrix”

Organism: Rattus norvegicus
Assay: DrugMatrix - Regimen: Daily Repeat
Type: toxicity, organism-based, Sprague-Dawley
Design: regimen Daily Repeat, gender Male, age 6-8 weeks
Conditions: in vivo, po, route oral GAVAGE, […]; for ABSOLUTE BASOPHIL / ABSOLUTE EOSINOPHIL / ABSOLUTE LYMPHOCYTE / ABSOLUTE MONOCYTE / ABSOLUTE SEGMENTED NEUTROPHIL / BASOPHIL / EOSINOPHIL / ERYTHROCYTE COUNT / HEMATOCRIT / HEMOGLOBIN / LEUKOCYTE COUNT / LYMPHOCYTE / MEAN CORPUSCULAR HEMOGLOBIN / MEAN CORPUSCULAR HEMOGLOBIN CONCENTRATION / MEAN CORPUSCULAR VOLUME / MONOCYTE / NEUTROPHIL / NUCLEATED RED BLOOD CELLS / PLATELET COUNT: tissue Blood; for ALANINE AMINOTRANSFERASE / ALKALINE PHOSPHATASE / ASPARTATE AMINOTRANSFERASE / BLOOD UREA NITROGEN / CARBON DIOXIDE / CHLORIDE / CHOLESTEROL / CREATINE PHOSPHOKINASE / CREATININE / GLUCOSE / LACTATE DEHYDROGENASE / LIPASE / PHOSPHORUS / POTASSIUM / SODIUM / TOTAL BILIRUBIN / TOTAL PROTEIN / URIC ACID: tissue Plasma
[1] = 36 mg/kg, 120 h, dose level Low, time 5 day
[2] = 386 mg/kg, 72 h, dose level High, time 3 day
[3] = 386 mg/kg, 120 h, dose level High, time 5 day

## c1ccc2c(c1)Nc1ccccc1S2 [PHENOTHIAZINE]
[1]
  ABSOLUTE BASOPHIL: 0 CELLS/uL
  ABSOLUTE EOSINOPHIL: 85 CELLS/uL
  ABSOLUTE LYMPHOCYTE: 7942.67 CELLS/uL
  ABSOLUTE MONOCYTE: 54.67 CELLS/uL
  ABSOLUTE SEGMENTED NEUTROPHIL: 984.33 CELLS/uL
  BASOPHIL: 0%
  EOSINOPHIL: 1%
  ERYTHROCYTE COUNT: 5.36 x10E6/uL
  HEMATOCRIT: 33.6%
  HEMOGLOBIN: 13.03 G/DL
  LEUKOCYTE COUNT: 9.07 x10E3/uL
  LYMPHOCYTE: 87.67%
  MEAN CORPUSCULAR HEMOGLOBIN: 24.33 pg
  MEAN CORPUSCULAR HEMOGLOBIN CONCENTRATION: 38.8 G/DL
  MEAN CORPUSCULAR VOLUME: 62.63 fL
  MONOCYTE: 0.67%
  NEUTROPHIL: 10.67%
  NUCLEATED RED BLOOD CELLS: 0 /100WBC
  PLATELET COUNT: 1083 x10E3/uL
  ALANINE AMINOTRANSFERASE: 54.67 u/L
  ALKALINE PHOSPHATASE: 331 u/L
  ASPARTATE AMINOTRANSFERASE: 95.67 u/L
  BLOOD UREA NITROGEN: 13.33 mg/dL
  CARBON DIOXIDE: 27 mmol/L
  CHLORIDE: 101.67 MEQ/L
  CHOLESTEROL: 59.67 mg/dL
  CREATINE PHOSPHOKINASE: 568.67 u/L
  CREATININE: 0.17 mg/dL
  GLUCOSE: 162.33 mg/dL
  LACTATE DEHYDROGENASE: 99.67 u/L
  LIPASE: 10.33 u/L
  PHOSPHORUS: 9.13 mg/dL
  POTASSIUM: 5.69 MEQ/L
  SODIUM: 147.3 MEQ/L
  TOTAL BILIRUBIN: 0.2 mg/dL
  TOTAL PROTEIN: 5.73 G/DL
  URIC ACID: 0.57 mg/dL
[2]
  ABSOLUTE BASOPHIL: 0 CELLS/uL
  ABSOLUTE EOSINOPHIL: 0 CELLS/uL
  ABSOLUTE LYMPHOCYTE: 9449.33 CELLS/uL
  ABSOLUTE MONOCYTE: 225 CELLS/uL
  ABSOLUTE SEGMENTED NEUTROPHIL: 1559 CELLS/uL
  BASOPHIL: 0%
  EOSINOPHIL: 0%
  ERYTHROCYTE COUNT: 6.26 x10E6/uL
  HEMATOCRIT: 38.97%
  HEMOGLOBIN: 14.93 G/DL
  LEUKOCYTE COUNT: 11.23 x10E3/uL
  LYMPHOCYTE: 84.67%
  MEAN CORPUSCULAR HEMOGLOBIN: 23.83 pg
  MEAN CORPUSCULAR HEMOGLOBIN CONCENTRATION: 38.3 G/DL
  MEAN CORPUSCULAR VOLUME: 62.3 fL
  MONOCYTE: 2%
  NEUTROPHIL: 13.33%
  NUCLEATED RED BLOOD CELLS: 0 /100WBC
  PLATELET COUNT: 976.33 x10E3/uL
  ALANINE AMINOTRANSFERASE: 78.33 u/L
  ALKALINE PHOSPHATASE: 354.33 u/L
  ASPARTATE AMINOTRANSFERASE: 109.33 u/L
  BLOOD UREA NITROGEN: 12.67 mg/dL
  CARBON DIOXIDE: 29.67 mmol/L
  CHLORIDE: 97 MEQ/L
  CHOLESTEROL: 128 mg/dL
  CREATINE PHOSPHOKINASE: 511 u/L
  CREATININE: 0.21 mg/dL
  GLUCOSE: 125 mg/dL
  LACTATE DEHYDROGENASE: 138.67 u/L
  LIPASE: 40.67 u/L
  PHOSPHORUS: 7.87 mg/dL
  POTASSIUM: 5.77 MEQ/L
  SODIUM: 142 MEQ/L
  TOTAL BILIRUBIN: 0.7 mg/dL
  TOTAL PROTEIN: 5.53 G/DL
  URIC ACID: 0.6 mg/dL
[3]
  ABSOLUTE BASOPHIL: 0 CELLS/uL
  ABSOLUTE EOSINOPHIL: 0 CELLS/uL
  ABSOLUTE LYMPHOCYTE: 8085.67 CELLS/uL
  ABSOLUTE MONOCYTE: 101 CELLS/uL
  ABSOLUTE SEGMENTED NEUTROPHIL: 1546.67 CELLS/uL
  BASOPHIL: 0%
  EOSINOPHIL: 0%
  ERYTHROCYTE COUNT: 5 x10E6/uL
  HEMATOCRIT: 31.27%
  HEMOGLOBIN: 12.03 G/DL
  LEUKOCYTE COUNT: 9.73 x10E3/uL
  LYMPHOCYTE: 82.67%
  MEAN CORPUSCULAR HEMOGLOBIN: 24.07 pg
  MEAN CORPUSCULAR HEMOGLOBIN CONCENTRATION: 38.53 G/DL
  MEAN CORPUSCULAR VOLUME: 62.43 fL
  MONOCYTE: 1%
  NEUTROPHIL: 16.33%
  NUCLEATED RED BLOOD CELLS: 0 /100WBC
  PLATELET COUNT: 1551.67 x10E3/uL
  ALANINE AMINOTRANSFERASE: 64.67 u/L
  ALKALINE PHOSPHATASE: 210.67 u/L
  ASPARTATE AMINOTRANSFERASE: 87.67 u/L
  BLOOD UREA NITROGEN: 15.33 mg/dL
  CARBON DIOXIDE: 27.67 mmol/L
  CHLORIDE: 101 MEQ/L
  CHOLESTEROL: 108.33 mg/dL
  CREATINE PHOSPHOKINASE: 236 u/L
  CREATININE: 0.23 mg/dL
  GLUCOSE: 135 mg/dL
  LACTATE DEHYDROGENASE: 68.67 u/L
  LIPASE: 11.33 u/L
  PHOSPHORUS: 9.1 mg/dL
  POTASSIUM: 5.66 MEQ/L
  SODIUM: 145.9 MEQ/L
  TOTAL BILIRUBIN: 0.33 mg/dL
  TOTAL PROTEIN: 5.3 G/DL
  URIC ACID: 0.77 mg/dL
